From ChEMBL document CHEMBL1201862, “PubChem BioAssay data set” (2004)
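96-well plates; 48 h exposure; 5 concentrations. Endpoints by linear interpolation between flanking doses. Not reached: highest tested concentration assigned. GI50 = concentration required for 50% inhibition of growth.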 Active and inactive are the calls of the source. No stated cut-off is given here; in the data, active = GI50 up to about 1.1 µM and inactive = higher.

Tests used:
Test in all cases: NCI tumour cell line growth inhibition, 48 h
UO-31 = system: UO-31
SN12C = system: SN12C
MDA-MB-435 = system: MDA-MB-435
TK-10 = system: TK-10
NCI-H23 = system: NCI-H23
SF-539 = system: SF-539
MOLT-4 = system: MOLT-4
OVCAR-4 = system: OVCAR-4
SK-MEL-28 = system: SK-MEL-28
OVCAR-5 = system: OVCAR-5
PC-3 = system: PC-3
DU-145 = system: DU-145
HOP-62 = system: HOP-62
IGROV-1 = system: IGROV-1
MDA-MB-231 = system: MDA-MB-231
T47D = system: T47D
HL-60 = system: HL-60
NCI-H226 = system: NCI-H226
CCRF-CEM = system: CCRF-CEM
SR = system: SR

Row | SMILES | GI50 (UO-31) | GI50 (SN12C) | GI50 (MDA-MB-435) | GI50 (TK-10) | GI50 (NCI-H23) | GI50 (SF-539) | GI50 (MOLT-4) | GI50 (OVCAR-4) | GI50 (SK-MEL-28) | GI50 (OVCAR-5) | GI50 (PC-3) | GI50 (DU-145) | GI50 (HOP-62) | GI50 (IGROV-1) | GI50 (MDA-MB-231) | GI50 (T47D) | GI50 (HL-60) | GI50 (NCI-H226) | GI50 (CCRF-CEM) | GI50 (SR)
1 | O=C1N/N=C\Nc2ccc(cc2)S(=O)(=O)c2ccc(cc2)/N=C\NNC1=O | > 100 µM (inactive) | > 100 µM (inactive) | > 100 µM (inactive) | > 100 µM (inactive) | > 100 µM (inactive) | > 100 µM (inactive) | > 100 µM (inactive) | > 100 µM (inactive) | > 100 µM (inactive) | > 100 µM (inactive) | > 100 µM (inactive) | > 100 µM (inactive) | > 100 µM (inactive) | > 100 µM (inactive) | > 100 µM (inactive) | > 100 µM (inactive) | 10.1 µM (inactive) | > 100 µM (inactive) |  | 
2 | COc1cc(C(=O)N(C(=S)OC23CC4CC(CC(C4)C2)C3)c2ccccc2)cc(OC)c1OC | 19.1 µM (inactive) | 28.6 µM (inactive) | 29.5 µM (inactive) | 42.8 µM (inactive) | 28 µM (inactive) | 31.3 µM (inactive) | 2.82 µM (inactive) | 29.2 µM (inactive) | 30.5 µM (inactive) | 26.5 µM (inactive) | 22.6 µM (inactive) | 58.9 µM (inactive) | 43.7 µM (inactive) |  | 33.4 µM (inactive) | 43.2 µM (inactive) | 9.73 µM (inactive) | 21.5 µM (inactive) | 2.89 µM (inactive) | 
3 | COC(=O)[C@@](C)(COC(=O)C(C)(C)C)NC(=O)OC(C)(C)C | > 100 µM (inactive) | > 100 µM (inactive) | > 100 µM (inactive) | > 100 µM (inactive) | > 100 µM (inactive) | > 100 µM (inactive) | > 100 µM (inactive) | > 100 µM (inactive) | > 100 µM (inactive) | > 100 µM (inactive) | > 100 µM (inactive) | > 100 µM (inactive) | > 100 µM (inactive) | > 100 µM (inactive) | > 100 µM (inactive) | > 100 µM (inactive) |  | > 100 µM (inactive) | > 100 µM (inactive) | > 100 µM (inactive)
4 | Cc1ccc(C(C2C(=O)N(C)C(=O)N(C)C2=O)C(F)(F)C(=O)N(C)C)cc1 (stereo unspecified) | > 100 µM (inactive) |  | > 100 µM (inactive) | > 100 µM (inactive) | > 100 µM (inactive) | 45.3 µM (inactive) |  | > 100 µM (inactive) | > 100 µM (inactive) | > 100 µM (inactive) | > 100 µM (inactive) | > 100 µM (inactive) | > 100 µM (inactive) |  | > 100 µM (inactive) | > 100 µM (inactive) |  | > 100 µM (inactive) | > 100 µM (inactive) | 
5 | CCc1n[nH]c(=O)n1/N=C/c1ccccc1Cl | > 100 µM (inactive) | > 100 µM (inactive) | 85.7 µM (inactive) | > 100 µM (inactive) | > 100 µM (inactive) | > 100 µM (inactive) | > 100 µM (inactive) | > 100 µM (inactive) | > 100 µM (inactive) | > 100 µM (inactive) |  | > 100 µM (inactive) | 76.2 µM (inactive) | 78.3 µM (inactive) | > 100 µM (inactive) | > 100 µM (inactive) | > 100 µM (inactive) | 88.5 µM (inactive) | > 100 µM (inactive) | > 100 µM (inactive)
6 | CC(=O)O[C@H]1C(=O)N(c2cc3c4ccccc4ccc3c3ccccc23)[C@@H]1c1ccccc1 | 11.2 µM (inactive) | 11 µM (inactive) | 1.61 µM (inactive) | 12.8 µM (inactive) | 5.51 µM (inactive) | 3.89 µM (inactive) | 7.69 µM (inactive) | 4.66 µM (inactive) | 10.4 µM (inactive) | 15.7 µM (inactive) | 7.82 µM (inactive) | 14.5 µM (inactive) | 5.16 µM (inactive) | 2.11 µM (inactive) | 10.9 µM (inactive) | 6.01 µM (inactive) |  | 3.33 µM (inactive) | 3.76 µM (inactive) | 1.6 µM (inactive)
7 | COC(=O)[C@@H](NC(=O)N(CCC#N)CCCN(C(=O)N[C@H](Cc1ccccc1)C(=O)OC)c1ccccc1)C(C)C | 97.5 µM (inactive) | > 100 µM (inactive) | 57.1 µM (inactive) | > 100 µM (inactive) | > 100 µM (inactive) | > 100 µM (inactive) | 23 µM (inactive) | 50.4 µM (inactive) | 34.3 µM (inactive) | > 100 µM (inactive) | 81.8 µM (inactive) | > 100 µM (inactive) | > 100 µM (inactive) | 59.3 µM (inactive) | > 100 µM (inactive) | 36.8 µM (inactive) |  | > 100 µM (inactive) | 85.1 µM (inactive) | 
8 | COC(=O)[C@@H]1[C@@H](c2cccc(Cl)c2)[C@H](C(=O)OC)C2(C[C@@]1(C)O)NCCS2 (stereo partly specified) | > 100 µM (inactive) | 47.9 µM (inactive) | 52.5 µM (inactive) | > 100 µM (inactive) | 22.3 µM (inactive) | > 100 µM (inactive) | 0.57 µM (active) | 46.7 µM (inactive) | 77.4 µM (inactive) | > 100 µM (inactive) | 31.4 µM (inactive) | 32.7 µM (inactive) | 92.3 µM (inactive) | 62.5 µM (inactive) | 64.7 µM (inactive) | 29.6 µM (inactive) |  | > 100 µM (inactive) | 0.684 µM (active) | 
9 | Cc1cccc(Nc2cnc(N)nc2N)c1 | 90.2 µM (inactive) | > 100 µM (inactive) | > 100 µM (inactive) | > 100 µM (inactive) | > 100 µM (inactive) | > 100 µM (inactive) | > 100 µM (inactive) | > 100 µM (inactive) | > 100 µM (inactive) |  | > 100 µM (inactive) | > 100 µM (inactive) | > 100 µM (inactive) | > 100 µM (inactive) | > 100 µM (inactive) | > 100 µM (inactive) | > 100 µM (inactive) | > 100 µM (inactive) | > 100 µM (inactive) | 
10 | CC[C@H](C)[C@H]1NC(=O)[C@@H](NC(=O)[C@@H](CC(C)C)N(C)C(=O)C2CCCN2C(=O)[C@H](C)O)[C@@H](C)OC(=O)[C@@H]2Cc3ccccc3CN2C(=O)[C@@H]2CCCN2C(=O)[C@H](CC(C)C)NC(=O)[C@@H](C)C(=O)[C@H](C(C)C)OC(=O)C[C@@H]1O (stereo partly specified) |  | 0.271 µM (active) | 0.374 µM (active) | 2.62 µM (inactive) |  | 0.267 µM (active) | 0.17 µM (active) | 0.641 µM (active) | 0.231 µM (active) | 0.822 µM (active) | 0.317 µM (active) | 0.341 µM (active) | 0.385 µM (active) | 0.476 µM (active) | 1.04 µM (active) | 0.323 µM (active) |  | 1.6 µM (inactive) | 0.106 µM (active) | 0.0811 µM (active)
11 | CSC12c3cc(C)n(-c4ccccc4)c3CC(C)(C)CN1C(=O)C2Oc1ccccc1 (stereo unspecified) | 25.7 µM (inactive) | > 100 µM (inactive) | > 100 µM (inactive) |  | 27.9 µM (inactive) | > 100 µM (inactive) | 10.2 µM (inactive) | > 100 µM (inactive) | 62.7 µM (inactive) | > 100 µM (inactive) | 35.2 µM (inactive) | > 100 µM (inactive) | > 100 µM (inactive) | > 100 µM (inactive) | > 100 µM (inactive) | > 100 µM (inactive) |  | 24.9 µM (inactive) | 16.6 µM (inactive) | 11.3 µM (inactive)
12 | C=C1[C@H](OCC(C)C)[C@@H](OCC(C)C)[C@@H](O)C(C)(C)/C=C/[C@H](C)C(=O)[C@@]2(O)C[C@H](C)[C@H](O)[C@@H]2[C@H]1OCC(C)C | 6.52 µM (inactive) | > 7.5 µM (inactive) | 3.01 µM (inactive) | 5.78 µM (inactive) | > 7.5 µM (inactive) | 2.83 µM (inactive) | 0.676 µM (active) | > 7.5 µM (inactive) |  | > 7.5 µM (inactive) | > 7.5 µM (inactive) | > 7.5 µM (inactive) | 1.16 µM (inactive) |  | 3.25 µM (inactive) | > 7.5 µM (inactive) |  |  |  | > 7.5 µM (inactive)
13 | COc1cnnc2c(C)c(-c3ccccc3)nn12 | 32.5 µM (inactive) | 30.1 µM (inactive) | 77.4 µM (inactive) | > 100 µM (inactive) | > 100 µM (inactive) | > 100 µM (inactive) | > 83.6 µM (inactive) | > 79.4 µM (inactive) | 71.9 µM (inactive) | > 100 µM (inactive) | > 86.5 µM (inactive) | 24.3 µM (inactive) | > 69.3 µM (inactive) | 38.4 µM (inactive) | > 61.9 µM (inactive) | 2.6 µM (inactive) | > 100 µM (inactive) | > 100 µM (inactive) | > 73.1 µM (inactive) | 
14 | Cc1ccc(-c2cnc(NC3OC(COC(=O)c4ccccc4)C(OC(=O)c4ccccc4)C(OC(=O)c4ccccc4)C3OC(=O)c3ccccc3)s2)cc1 (stereo unspecified) | > 100 µM (inactive) | > 100 µM (inactive) | > 100 µM (inactive) | > 100 µM (inactive) | > 100 µM (inactive) |  | > 100 µM (inactive) | 68.1 µM (inactive) | > 100 µM (inactive) | 61.7 µM (inactive) | > 100 µM (inactive) | > 100 µM (inactive) | > 100 µM (inactive) | > 100 µM (inactive) | > 100 µM (inactive) | > 100 µM (inactive) |  | > 100 µM (inactive) |  | > 100 µM (inactive)
15 | C/C(=N\NC(=S)NCCCCNC(=S)N/N=C(\C)c1ccccn1)c1ccccc1 | 0.635 µM (active) | 0.859 µM (active) | > 100 µM (inactive) | 0.839 µM (active) | 2.73 µM (inactive) | 1.11 µM (active) | 0.556 µM (active) | 1.43 µM (inactive) | 2.05 µM (inactive) | 1.98 µM (inactive) | 3.02 µM (inactive) | 0.979 µM (active) | 0.745 µM (active) | 0.736 µM (active) | 5.09 µM (inactive) | 0.351 µM (active) |  |  | 0.391 µM (active) | 0.317 µM (active)
